Reference: patent publication US5272151A, “Aminoacyl and oligopeptidyl derivatives of allopurinol exhibiting immunostimulatory activity, and pharmaceutical formulations containing these substances” (Sigma-Tau Industrie Farmaceutiche Riunite S.p.A., priority 1991, dated 1993)
Where two headings read alike, the source gives them in different places.

Columns and labels:
[1] = system: mouse peritoneal exudate cells (PECs); assay: In vitro-ex vivo phagocytic activity of mouse peritoneal exudate cells (PECs); settings: for % Phagocytic cells: % of cells that had phagocytosed relative to potential phagocytes in PECs; for % Phagocytic cells / SRBC phagocytosed / SRBC per phagocyte: 25 mg/kg daily i.p. day -5 through day -1; for SRBC phagocytosed: average number of SRBC phagocytosed by 100 potential phagocytes; for SRBC per phagocyte: average number of SRBC phagocytosed per phagocyte
Procedure: In vitro-ex vivo effects of ST 689 and ST 789 on phagocytic activity of mouse peritoneal exudate cells (PECs).
Male B6 D2 F1 mice (Charles River, Italy), 6 weeks old, in experimental groups of 5 animals, were treated with the above substances i.p. at daily doses of 25 mg/kg from day -5 through day -1 relative to the day the PECs were sampled (day 0). The experimental procedure followed those described in [1] and [2]; briefly, the animals in each group were asphyxiated with CO2, the peritoneal cavities repeatedly washed, and the PECs recovered from each experimental group pooled and standardised to 4×10^6 cells/mL. Aliquots (250 μL) of phagocyte suspension were added to equal volumes of 0.4% SRBC that had been appropriately opsonised with hyperimmune serum. The samples, prepared in duplicate, were incubated for 1 h and then osmotically shocked to eliminate non-phagocytosed erythrocytes. After adjusting the osmolarity to normal values, the phagocytes were centrifuged and differentially stained. Microscopic counts of cells with phagocytic capabilities and of phagocytosed SRBC in fields of 200 cells were performed in triplicate. The results are expressed as % phagocytic cells, the average number of SRBC phagocytosed per phagocyte, and the total number of SRBC phagocytosed per 100 phagocytes.

E. coli = assay: Protective effect in experimentally-infected immunosuppressed mice (E. coli); assay type: in vivo; settings: cyclophosphamide-immunodepressed CD1 mice; 25 mg/kg/d i.p. day -5 through day -1; challenge day 0
Text: (§1) Evaluation of the protective effects of ST 689 and ST 789 in experimentally-infected immunosuppressed mice.
(§2) Male CDl mice (Charles River, Italy), 6-10 weeks old, were used in experimental groups of 9-20 animals. Systemic infection in the mice was achieved by intrapcritoncal inoculation of a pathogenic species of Klebsiclla (K. oxytoca), Proteus (P. mirabilis), Serratia (S. marcescens),and Hscherichia (E. coli). Eighteen-hour broth cultures were used to prepare infectious inocula that were either sublethal (Proteus) or which corresponded to an LD30 (Serratia) and an LD10 (Escherichia, Klebsiella). The bacterial challenge, inoculated i.p. in 0.5 mL of 5% gastric mucin, was designed to cause the death of animals immunodepressed with cyclophosphamide (administered i.p. in 0.2 mL of sterile physiological solution at a dosage of 100 mg/kg) 5 days prior to infection. The compounds were administered i.p. at daily doses of 25 mg/kg from day -5 to day -1 with respect to the day of bacterial inoculation (day 0). The results are expressed as % mortality and were statistically analysed using Fisher's test (Biostatistics in Pharmacology, vol. 2, Pergamon Press).

[2] = system: CEM-CM3 human leukaemic lymphoblasts; assay: In vitro-ex vivo cytostatic activity of mouse peritoneal macrophages towards tumour targets; settings: for inhibition at 25 mg/kg: Mus musculus, Peritoneal macrophage
Procedure: In vitro-ex vivo effects of substances ST 689 and ST 789 on the cytostatic activity of mouse peritoneal macrophages (MO) towards tumour targets.
Male B6 D2 F1 mice (Charles River, Italy), 7 weeks old, 5 animals per experimental group, were treated with the above substances i.p. at daily dosages of 25 mg/kg from day -5 through day -1 relative to the day of macrophage sampling (day 0). The tumour target, CEM--CM3 human leukaemic lymphoblasts, was admixed with adherent Mo so as to have two different precisely-measured effector:target ratios, viz. 10:1 and 20:1. Each sample, prepared in triplicate in flat-bottom microliter wells, was labelled with ^3 H--TdR (0.05 μCi) by incubation for 18 h at 37° C. The tumour cells from each well were collected on filters, counted in a β-counter, and the % inhibition of tumour target growth determined using the formula. [formula]

P. mirabilis = assay: Protective effect in experimentally-infected immunosuppressed mice (P. mirabilis); assay type: in vivo; settings: for % Mortality, P. mirabilis: cyclophosphamide-immunodepressed CD1 mice, 25 mg/kg/d i.p. day -5 through day -1, challenge day 0
Text: as §1, §2

[3] = Weight survey of rats in the IL-2 test (Test 5); assay type: in vivo, rat; settings: Fisher rats; 25 mg/kg daily i.p. day -5 through day -1
Procedure: Male Fisher rats (Charles River, Italy), 3 months old, in experimental groups of 5 animals, were treated with the substances at daily dosages of 25 mg/kg from day -5 through day -1 relative to the day the spleens were sampled (day 0). The experimental procedure employed was that reported in [1]. To suspensions of splenocytes, prepared in RPMI 1640 with 10% FCS+1×10^-5 M β-mercaptoethanol and standardised to a concentration of 1×10^7 cells/mL, were added equal volumes of ConA at a concentration of 18 μg/mL/well. After incubating for 48 h at 37° C. in the presence of 5% CO2 the samples were centrifuged and the supernates collected. Serial dilutions of the supernates were added to CTLL-2 cells (a line of T-cells requiring IL-2 for growth) standardised at 5×10^4 cells/mL. Following an overnight incubation, the samples were labelled with ^3 H--TdR (0.5 μCi/well)for 6 h, then the cells were collected on filters using a cell harvester, and counted (cpm) using a β-counter. The results are expressed in units of IL-2, comparing the counts in the samples to a standard curve prepared with purified IL-2 . . . ls1.

Structure (SMILES) | Effect on the phagocytic capabilities of PECs, in words ([1]; 25 mg/kg daily i.p.) | % Phagocytic cells [1] | SRBC phagocytosed [1] | SRBC per phagocyte [1] | % Mortality, E. coli (E. coli) | inhibition at 25 mg/kg ([2]; effector:target ratio 10:1, 25 mg/kg daily day -5 through day -1, read-out: % Growth Inhibition 10:1) | inhibition at 25 mg/kg ([2]; effector:target ratio 20:1, 25 mg/kg daily day -5 through day -1, read-out: % Growth Inhibition 20:1) | % Mortality, P. mirabilis (P. mirabilis) | Protective activity in Proteus infection, in words (P. mirabilis; immunodepressed mice, 25 mg/kg/d i.p.) | Body weight [3] | Spleen weight [3] | Growth inhibition of the CEM-CM3 cell line, in words ([2]; 25 mg/kg daily i.p.) | % Growth Inhibition 10:1 ([2]; effector:target ratio 10:1, 25 mg/kg daily day -5 through day -1) | % Growth Inhibition 20:1 ([2]; effector:target ratio 20:1, 25 mg/kg daily day -5 through day -1)
O=c1[nH]cnc2c1cnn2CCCCCO [ST 689, 1,5-dihydro-1-(5-hydroxypentyl)-4H-pyrazolo-[3,4-d]-pyrimidin-4-one] | extremely positive effect | 42.5 ± 0.5% | 229.5 ± 34.5 | 5.40 ± 0.90 | 40% | 32.8 ± 1.84% | 48 ± 5.46% | 10% | equal to that of ST 789 | 271.6 ± 4.76 g | 511.0 ± 22.35 mg |  |  | 
N=C(N)NCCC[C@H](NC(=O)OCCCCCn1cnc2c(=O)[nH]cnc21)C(=O)O [ST 789, N-alfa-5-(hypoxanthin-9-yl)-pentyloxycarbonylarginine, reference compound] |  | 31.5 ± 0.5% | 152.5 ± 9.5 | 4.85 ± 0.25 | 20% |  |  | 11,1% |  | 275.0 ± 3.76 g | 539.2 ± 12.11 mg | definite increase in growth inhibition | 15.85 ± 3.33% | 30.31 ± 5.19%
